Series [1] is described as follows: Pharmacokinetic evaluation of asenapine and asenapine prodrugs in rats. The class given is in vivo, Sprague-Dawley rats. The settings on record: rat plasma, 10 mg/rat IM, suspension in 1% HPMC in PBS saline with 0.2% Tween pH 6.0; FIG. 3. On the procedure:
Animals: 18 Male Sprague-Dawley rats (Charles River Laboratories, Wilmington, Mass.) were used in the study. Three groups of 6 rats were used and are referred to in this study as Groups A, B and C. Rats were approximately 350-375 g at time of arrival. Rats are housed 2 per cage with ad libitum chow and water. Environmental conditions in the housing room: 64-67° F., 30% to 70% relative humidity, and 12:12-h light:dark cycle. All experiments were approved by the institutional animal care and use committee.
Test Compounds: The following formulations of Asenapine parent drug and prodrug compounds of the invention were used in the study.
Pharmacokinetics study: Rats were dosed IM by means of a 23 gauge, 1 in. needle with 1 cc syringe 0.3 mL suspension was withdrawn from the vial containing the test compound. The rat was injected in the muscles of the hind limb after anesthesia with isoflourane. Blood samples were collected via a lateral tail vein after brief anesthesia with Isoflurane. A 27½G needle and 1 cc syringe without an anticoagulant was used for the blood collection. […]
Data Analysis: Drug concentrations in plasma samples were analyzed by liquid chromatography—mass spectroscopy using appropriate parameters for each compound. Half-life, volume of distribution, clearance, maximal concentration, and AUC were calculated by using WinNonlin version 5.2 software (Pharsight, St. Louis, Mo.).

The subject of series [2] is muscarinic receptors. The following applies: background; cited from earlier work.
Series [3] relates to serotonergic (5-HT2A, 5-HT2C, 5-HT6, 5-HTS), noradrenergic (α2A, α2B, α2C) and dopaminergic (D3, D4) receptors. The following applies: background; cited from earlier work.
The nature of series [4]: Solution stability of asenapine prodrugs as a function of pH. The class given is physicochemical. The settings on record: 0.01M buffers pH 2.11-9.01, 25° C., HPLC after 1, 4, 10 and 24 hours; FIG. 1 and 2. The method, then:
The asenapine derived prodrugs were prepared at approximately 300 ug/mL in buffers (see table of buffers below). The initial ratio of prodrug/parent was measured using a freshly prepared solution in unbuffered water. Acetonitrile was titrated into all samples as needed to ensure the complete dissolution of the compounds. The amount of acetonitrile varied depending on the solubility of each compound (see Note 1). 1.5 mL of each stability sample was transferred into a HPLC vial and the vials were maintained at 25° C. in the temperature controlled sample compartment of the HPLC. Each sample was assayed by HPLC after 1, 4, 10, and 24 hours for prodrug and asenapine content (see Note 2).
The fraction of prodrug remaining at each time point was calculated as;
Fraction Prodrug=(HPLC Area of Prodrug)/(HPLC area of prodrug+asenapine) (see Note 3).
The loss of prodrug was then fit to the equation for first order decay:
Fraction Prodrug=(Initial Fraction prodrug)*e^−kt
where t=time (in hours) and k is the rate constant for decay. Finally, the half-lives are were calculated as
Note 1: The acetonitrile concentration is not expected to have a large impact on the degradation rate since the rate follows first order decay with respect to compound (ie, the rate constant is independent of the concentration). […]

For the compound `CCC(C)(C)C(=O)OC[N+]1(C)CC2c3ccccc3Oc3ccc(Cl)cc3C2C1.[I-]` (stereo not shown) [ASN-83, Asenapine dimethyl butyrate prodrug], the Cmax entry in series [1] was “lower than the Cmax of the parent Asenapine formulation as well as lower than that of the Asenapine palmitate prodrug (ASN-76)”.
In the case of `CN1CC2c3ccccc3Oc3ccc(Cl)cc3C2C1` (stereo not shown) [Asenapine], in series [2], the Affinity result is on record as “minimal affinity”. Besides, the “Affinity relative to D2 receptors” value in series [3] is reported as “higher affinity”.
For `CC(C)(C)C(=O)OC[N+]1(C)CC2c3ccccc3Oc3ccc(Cl)cc3C2C1.[Cl-]` (stereo not shown) [asenapine pivalate], the “Solution stability (loss of prodrug to asenapine)” value in series [4] was “more stable than the asenapine octanoate”.

The values above are taken from patent publication US20110166194A1, “Asenapine Prodrugs” (Alkermes, Inc., priority 2010, published 2011).
